Data reported in EPA's ToxValDB 9.5 (doi:10.2903/j.efsa.2006.82r).
≈ marks a conversion by molar mass, not a printed value.

Columns and labels:
[1] = test system: Anas platyrhynchos; conditions: for LD50: oral, mortality
[2] = test system: Apis mellifera; conditions: acute; duration: 48 hours; oral; unspecified; mortality
[3] = test system: Bird; conditions: acute; oral; unspecified; mortality
[4] = test system: Canidae; conditions: oral, Dog Other, organ weight
[5] = test system: Colinus virginianus; conditions: for LD50: acute, oral, mortality
[6] = test system: Oncorhynchus mykiss
[7] = test system: Rattus norvegicus
[8] = test system: Tagia sp.
[9] = test system: Trichogramma cacoeciae; conditions: not reported; mortality

SMILES: COc1ccc(C(=CC(=O)N2CCOCC2)c2ccc(Cl)cc2)cc1OC [Dimethomorph]
- LD50 ([1]; acute, unspecified): > 2000 mg/kg
- NOEL ([1]; reproductive): 78.4 mg/kg-day
- LD50 ([1]; short-term, feed): > 938 mg/kg-day
- LD50 [2]: > 32.4 µg/piece
- LD50 [3]: 3900 mg/kg
- NOAEL ([4]; chronic, duration: 1 years, M/F): 4.9 mg/kg-day
- NOAEL ([4]; subchronic, duration: 90 days): 15 mg/kg-day
- LD50 ([5]; diet): > 728 mg/kg-day
- LD50 [5]: > 2000 mg/kg
- NOEL ([5]; reproduction developmental): 58.4 mg/kg-day
- LC50 ([6]; acute, duration: 96 hours, mortality): 3.4 µg/mL (≈ 8.77 µM)
- NOEC ([6]; chronic/long-term, duration: 96 days, development): 0.056 mg/L
- NOAEL ([7]; developmental, development): 60 mg/kg-day
- NOAEL ([7]; subchronic, duration: 90 days, oral): 16 mg/kg-day
- LC50 ([8]; acute, duration: 14 days, mortality): > 1000 mg/kg
- NOEC ([8]; chronic/long-term, duration: 8 weeks, reproduction): ≥ 120 mg/kg
- LEL [9]: 115 g/ha
